Reference: US8852554B2, “Radiolabelled PDE10 ligands” (Janssen Pharmaceutica NV, priority 2009, dated 2014)
“And” between values parts separate entries of the source, which are not always exact repeats. Equal entries are not always repeated.

Tests used:
PDE10A = biological target: T1, PDE10A (Rattus norvegicus, UniProt Q9QYJ6); assay: MicroPET imaging studies; type: in vivo, male Wistar rats; details: for BP (binding potential) at baseline: simplified reference tissue model, cerebellum as reference
T1 construct: from tissue; host or cells: brain (striatum) of living male Wistar rats, in vivo microPET
T1 sequence (Q9QYJ6 1-794): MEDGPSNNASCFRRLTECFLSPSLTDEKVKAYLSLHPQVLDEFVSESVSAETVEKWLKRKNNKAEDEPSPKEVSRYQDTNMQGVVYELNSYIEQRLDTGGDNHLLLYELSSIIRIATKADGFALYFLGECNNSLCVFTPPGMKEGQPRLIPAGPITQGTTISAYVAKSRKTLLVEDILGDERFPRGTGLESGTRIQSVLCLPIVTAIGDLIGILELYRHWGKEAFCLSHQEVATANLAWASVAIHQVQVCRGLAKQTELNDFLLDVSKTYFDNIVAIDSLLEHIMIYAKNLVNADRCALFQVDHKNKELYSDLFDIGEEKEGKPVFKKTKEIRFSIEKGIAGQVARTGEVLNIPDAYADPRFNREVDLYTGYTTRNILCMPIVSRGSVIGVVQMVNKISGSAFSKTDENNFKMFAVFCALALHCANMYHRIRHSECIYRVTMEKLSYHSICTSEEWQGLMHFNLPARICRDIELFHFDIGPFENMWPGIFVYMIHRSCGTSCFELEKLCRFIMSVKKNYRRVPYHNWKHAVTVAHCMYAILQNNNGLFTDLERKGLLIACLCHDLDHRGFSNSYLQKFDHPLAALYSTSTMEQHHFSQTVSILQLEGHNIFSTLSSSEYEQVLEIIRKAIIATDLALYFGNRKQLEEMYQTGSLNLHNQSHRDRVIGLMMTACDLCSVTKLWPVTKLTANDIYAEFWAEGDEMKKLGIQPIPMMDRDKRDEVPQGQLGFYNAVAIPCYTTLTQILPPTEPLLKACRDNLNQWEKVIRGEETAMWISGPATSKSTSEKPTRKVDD
Experimental: Imaging experiments were performed on a Focus™ 220 microPET scanner (Concorde Microsystems, Knoxville, Tenn., USA) using male Wistar rats with body weight varying between 300 and 600 g. […] Dynamic scans of 120 min were acquired in list mode. After reconstruction of the images, they were semi-automatically co-registered with a [^11C]raclopride template of the rat brain, and volumes of interest (VOIs) were generated for different anatomical brain structures (striatum, cerebral cortex and cerebellum) from which time-activity curves (TAC) were constructed for each individual image, using PMOD software (PMOD Technologies Ltd.). Normalization for body weight of the animal and injected dose was done. The radioactivity concentration in the different brain regions was expressed as SUV (standardized uptake value) as a function of time in seconds post injection of the radiotracer. The parametric binding potential (BP) values were calculated for all acquired images by using a simplified reference tissue model where the TAC of the cerebellum was used as input TAC for non-specific binding, using the same software (PMOD).
The radioactivity concentration in the different brain regions was expressed as SUV value as a function of time p.i. of the radiotracer by normalization for body weight of the animal and injected dose.

[1] = Biodistribution studies of the 18F tracers in rats; type: in vivo, male Wistar rats; details: rat
Experimental: Biodistribution studies were carried out in healthy male Wister rats (body weight 200-500 g) at 2 min, 30 min and 60 min post injection (p.i.) (n=3/time point). For |^18F|B-4 only the 2 min and 30 min time points were studied. […] Blood and major organs were collected in tared tubes and weighed. The radioactivity in blood, organs and other body parts was measured using an automated gamma counter. The distribution of radioactivity in different parts of the body at different time points p.i. of the tracer was calculated and expressed as percentage of injected dose (% ID), and as percentage of injected dose per gram tissue (% ID/g) for the selected organs. % ID is calculated as cpm in organ/total cpm recovered. For calculation of total radioactivity in blood, blood mass was assumed to be 7% of the body mass.

## Cc1cnc(COc2ccc(-c3nn(CC[18F])cc3-c3ccncc3)cc2)c(C)c1 [[^18F]B-3]
PDE10A
  BP (binding potential) at baseline: 4.1

## COc1ccc(COc2ccc(-c3nn(CC[18F])cc3-c3ccncc3)cc2)nc1 [[^18F]B-4]
[1]; biodistribution studies
  retention in the PDE10A-rich region striatum: retention
[1]; i.v.
  Clearance, 2 min/30 min ratio of % ID/g (normalized for body weight), Blood: 1.36
  Clearance, 2 min/30 min ratio of % ID/g (normalized for body weight), Cerebellum: 3.82
  Clearance, 2 min/30 min ratio of % ID/g (normalized for body weight), Cerebrum total: 2.90
  Clearance, 2 min/30 min ratio of % ID/g (normalized for body weight), Cortex: 4.24
  Clearance, 2 min/30 min ratio of % ID/g (normalized for body weight), Hippocampus: 3.08
  Clearance, 2 min/30 min ratio of % ID/g (normalized for body weight), Rest of cerebrum: 2.87
  Clearance, 2 min/30 min ratio of % ID/g (normalized for body weight), Striatum: 1.80
[1]; i.v., 2 min p.i.
  % ID, Blood: 4.55 ± 0.4 % ID
  % ID, Carcass: 36.93 ± 1.3 % ID
  % ID, Cerebellum: 0.07 % ID and 0.065 ± 0.011 % ID
  % ID, Cerebrum total: 0.32 % ID and 0.317 ± 0.014 % ID
  % ID, Cortex: 0.036 ± 0.007 % ID
  % ID, Heart: 0.62 ± 0.2 % ID
  % ID, Hippocampus: 0.006 ± 0.002 % ID
  % ID, Intestines: 12.02 ± 2.1 % ID
  % ID, Kidneys: 4.99 ± 0.2 % ID
  % ID, Liver: 35.98 ± 3.1 % ID
  % ID, Lungs: 1.12 ± 0.0 % ID
  % ID, Rest of cerebrum: 0.257 ± 0.014 % ID
  % ID, Spleen + Pancreas: 2.37 ± 0.2 % ID
  % ID, Stomach: 2.8 % ID and 2.80 ± 0.2 % ID
  % ID, Striatum: 0.018 ± 0.003 % ID
  % ID, Urine: 0.28 ± 0.1 % ID
  % ID/g normalized for body weight, Blood: 0.07 ± 0.01 % ID/g × body wt. in kg
  % ID/g normalized for body weight, Cerebellum: 0.109 % ID/g × body wt. in kg and 0.109 ± 0.01 % ID/g × body wt. in kg
  % ID/g normalized for body weight, Cerebrum + Cerebellum: 0.13 ± 0.01 % ID/g × body wt. in kg
  % ID/g normalized for body weight, Cerebrum total: 0.124 ± 0.01 % ID/g × body wt. in kg
  % ID/g normalized for body weight, Cortex: 0.168 % ID/g × body wt. in kg and 0.168 ± 0.00 % ID/g × body wt. in kg
  % ID/g normalized for body weight, Heart: 0.21 ± 0.06 % ID/g × body wt. in kg
  % ID/g normalized for body weight, Hippocampus: 0.091 % ID/g × body wt. in kg and 0.091 ± 0.01 % ID/g × body wt. in kg
  % ID/g normalized for body weight, Kidneys: 0.63 ± 0.17 % ID/g × body wt. in kg
  % ID/g normalized for body weight, Liver: 1.09 ± 0.08 % ID/g × body wt. in kg
  % ID/g normalized for body weight, Lungs: 0.22 ± 0.03 % ID/g × body wt. in kg
  % ID/g normalized for body weight, Rest of cerebrum: 0.117 ± 0.01 % ID/g × body wt. in kg
  % ID/g normalized for body weight, Spleen + Pancreas: 0.55 ± 0.03 % ID/g × body wt. in kg
  % ID/g normalized for body weight, Striatum: 0.226 % ID/g × body wt. in kg and 0.226 ± 0.01 % ID/g × body wt. in kg
  % ID/g, Blood: 0.14 ± 0.04 % ID/g
  % ID/g, Cerebellum: 0.231 ± 0.031 % ID/g
  % ID/g, Cerebrum + Cerebellum: 0.269 ± 0.066 % ID/g
  % ID/g, Cerebrum total: 0.263 ± 0.029 % ID/g
  % ID/g, Cortex: 0.355 ± 0.012 % ID/g
  % ID/g, Heart: 0.45 ± 0.13 % ID/g
  % ID/g, Hippocampus: 0.193 ± 0.031 % ID/g
  % ID/g, Liver: 2.32 ± 0.28 % ID/g
  % ID/g, Lungs: 0.46 ± 0.07 % ID/g
  % ID/g, Rest of cerebrum: 0.248 ± 0.030 % ID/g
  % ID/g, Spleen + Pancreas: 1.17 ± 0.03 % ID/g
  % ID/g, Striatum: 0.467 ± 0.002 % ID/g
  striatum/blood ratio (from % ID/g normalized for body weight): 3.47
  striatum/cortex ratio (from % ID/g normalized for body weight): 1.35
  striatum/hippocampus ratio (from % ID/g normalized for body weight): 2.49
  total initial brain uptake: 0.40 % ID
[1]; i.v., 30 min p.i.
  % ID in the urinary system: ~2.5 % ID
  % ID, Blood: 3.35 ± 0.5 % ID
  % ID, Carcass: 26.15 ± 1.2 % ID
  % ID, Cerebellum: 0.028 ± 0.002 % ID
  % ID, Cerebrum total: 0.208 ± 0.027 % ID
  % ID, Cortex: 0.022 ± 0.002 % ID
  % ID, Heart: 0.28 ± 0.1 % ID
  % ID, Hippocampus: 0.004 ± 0.000 % ID
  % ID, Intestines: 12 % ID and 11.98 ± 1.9 % ID
  % ID, Kidneys: 1.71 ± 0.3 % ID
  % ID, Liver: 47 % ID and 47.40 ± 3.5 % ID
  % ID, Lungs: 0.35 ± 0.1 % ID
  % ID, Rest of cerebrum: 0.162 ± 0.030 % ID
  % ID, Spleen + Pancreas: 0.56 ± 0.1 % ID
  % ID, Stomach: 8 % ID and 8.08 ± 3.7 % ID
  % ID, Striatum: 0.019 % ID and 0.019 ± 0.003 % ID
  % ID, Urine: 0.75 ± 0.1 % ID
  % ID/g normalized for body weight, Blood: 0.05 ± 0.01 % ID/g × body wt. in kg
  % ID/g normalized for body weight, Cerebellum: 0.029 ± 0.00 % ID/g × body wt. in kg
  % ID/g normalized for body weight, Cerebrum + Cerebellum: 0.04 ± 0.00 % ID/g × body wt. in kg
  % ID/g normalized for body weight, Cerebrum total: 0.043 ± 0.00 % ID/g × body wt. in kg
  % ID/g normalized for body weight, Cortex: 0.040 ± 0.01 % ID/g × body wt. in kg
  % ID/g normalized for body weight, Heart: 0.07 ± 0.01 % ID/g × body wt. in kg
  % ID/g normalized for body weight, Hippocampus: 0.029 ± 0.00 % ID/g × body wt. in kg
  % ID/g normalized for body weight, Kidneys: 0.19 ± 0.03 % ID/g × body wt. in kg
  % ID/g normalized for body weight, Liver: 1.05 ± 0.03 % ID/g × body wt. in kg
  % ID/g normalized for body weight, Lungs: 0.07 ± 0.00 % ID/g × body wt. in kg
  % ID/g normalized for body weight, Rest of cerebrum: 0.041 ± 0.00 % ID/g × body wt. in kg
  % ID/g normalized for body weight, Spleen + Pancreas: 0.11 ± 0.01 % ID/g × body wt. in kg
  % ID/g normalized for body weight, Striatum: 0.125 % ID/g × body wt. in kg and 0.125 ± 0.01 % ID/g × body wt. in kg
  % ID/g, Blood: 0.18 ± 0.03 % ID/g
  % ID/g, Cerebellum: 0.104 ± 0.005 % ID/g
  % ID/g, Cerebrum + Cerebellum: 0.151 ± 0.016 % ID/g
  % ID/g, Cerebrum total: 0.157 ± 0.019 % ID/g
  % ID/g, Cortex: 0.145 ± 0.026 % ID/g
  % ID/g, Heart: 0.24 ± 0.04 % ID/g
  % ID/g, Hippocampus: 0.108 ± 0.013 % ID/g
  % ID/g, Kidneys: 0.68 ± 0.12 % ID/g
  % ID/g, Liver: 3.85 ± 0.04 % ID/g
  % ID/g, Lungs: 0.24 ± 0.02 % ID/g
  % ID/g, Rest of cerebrum: 0.149 ± 0.019 % ID/g
  % ID/g, Spleen + Pancreas: 0.40 ± 0.02 % ID/g
  % ID/g, Striatum: 0.458 ± 0.041 % ID/g
  radioactivity concentration, the other brain regions (than striatum): ≤ 0.040 % ID/g corrected for body weight
  striatum/blood ratio (from % ID/g normalized for body weight): 2.61
  striatum/cerebellum ratio (from % ID/g normalized for body weight): 4.38
  striatum/hippocampus ratio (from % ID/g normalized for body weight): 4.25
PDE10A; baseline microPET
  peak (maximum) striatum-to-cerebellum ratio: 4.4
  time of peak striatum-to-cerebellum ratio: about 6 min p.i.
  time until which peak striatum-to-cerebellum ratio remained: about 13 min p.i.
PDE10A
  BP (binding potential) at baseline: 2.5
